Source: US20240124389A1, “COMPOUND OR SALT THEREOF, LIPID PARTICLES, AND PHARMACEUTICAL COMPOSITION” (FUJIFILM Corporation, priority 2021, published 2024)

Assays:
human EPO = assay: Measurement of EPO enzyme activity (EPO protein in blood plasma of mice after intravenous administration of EPO mRNA lipid particles); type: in vivo; settings: C57BL/6J mice, tail-vein i.v., mRNA 0.1 mg/kg, plasma 20 to 24 hours, lipid/nucleic acid 64 wt/wt
Experimental: (§1) The compounds described in Table 1, the neutral lipid, cholesterol (product name: Cholesterol HP; NIPPON FINE CHEMICAL CO., LTD.), and 1,2-dimyristoyl-rac-glycero-3-(methylpolyoxyethylene 2000) (hereinafter, called DMG-PEG2000) (product name: SUNBRIGHT® GM-020; NOF corporation) were dissolved in ethanol at a molar ratio in Table 1 such that the total lipid concentration became 20 mmol/L, thereby obtaining an oil phase.
(§2) As the neutral lipid, 1,2-distearoyl-sn-glycero-3-phosphocholine (product name: COATSOME® MC-8080; NOF corporation) (hereinafter, DSPC), or L-α-dioleoyl phosphatidylethanolamine (Hereinafter, DOPE) (product name: COATSOME® ME-8181; NOF corporation), or 1,2-dioleoyl-sn-glycero-3-phosphocholine (hereinafter, DOPC) (product name: COATSOME® MC-8181; NOF corporation) was used.
(§3) EPO mRNA (product name: CleanCap EPO mRNA (5moU); TriLink) was diluted with 50 mmol/L citrate buffer having a pH 4 such that the weight ratio of total lipid concentration to mRNA concentration is about 16:1 to 64:1, thereby obtaining a water phase. Then, the water phase and the oil phase were mixed together using NanoAssemblr (Precision NanoSystems) such that the volume ratio of water phase:oil phase was 3:1, and the mixed solution was 1.5-fold diluted with phosphate buffered saline (PBS), thereby obtaining a dispersion liquid of mRNA lipid particles. The dispersion liquid was dialyzed with a 10% aqueous sucrose solution using a dialysis cassette (Slide-A-Lyzer G2, MWCO: 10 kD, Thermo Fisher Scientific) to remove ethanol, thereby obtaining EPO mRNA-encapsulating lipid particles.
The dispersion liquid of mRNA lipid particles prepared in above-described <Preparation of EPO mRNA-encapsulating lipid particles> was tail-vein intravenously administered to C57BL/6J mice at a mRNA dosage of 0.1 mg/kg. 20 to 24 hours after the administration, blood was collected from the caudal vena cava, thereby obtaining blood plasma. The human EPO enzyme activity was quantified by using the obtained blood plasma and ab119522 Erythropoietin (EPO) Human Elisa Kit (Abcam.plc). The quantitative value is described as a relative amount of EPO protein in a case where Comparative Example 1 is 1.

[1] = Particle size of EPO mRNA-encapsulating lipid particles; type: physicochemical; settings: lipid/nucleic acid 64 wt/wt
Experimental: as §1, §2, §3
The particle size of the mRNA-encapsulating lipid particles was measured by 10-fold diluting the dispersion liquid of lipid particle with phosphate buffered saline (PBS) using Zeta-potential & Particle size Analyzer ELS-Z2 (Otsuka Electronics Co., Ltd.).

EPO mRNA = assay: mRNA encapsulation rate of EPO mRNA-encapsulating lipid particles; type: physicochemical; settings: lipid/nucleic acid 64 wt/wt
Experimental: as §1, §2, §3
15 to 30 μL of a 3 mol/L aqueous sodium acetate solution and 4.5 to 9 μL of glycogen were added to 30 to 60 μL of the lipid particles retaining mRNA, and 0.75 to 1.5 mL of ethanol was added thereto, so that only the nucleic acids were precipitated while the lipid was dissolved. Then, the supernatant was removed by centrifugation. The precipitates were air-dried for 15 minutes or longer, then water was added thereto to redissolve the precipitates, and the concentration thereof was measured using Nanodrop NF1000 (Thermo Fisher Scientific), thereby quantifying the total mRNA concentration.
The mRNA concentration was quantified using a Quant-iT RiboGreen RNA Assay Kit (Thermo Fisher Scientific) according to the protocol. First, a 20×TE buffer included in the above-described kit was diluted with water, thereby obtaining a 1×TE buffer. TE represents Tris/EDTA (ethylenediaminetetraacetic acid). In order to quantify only mRNA in the outer water phase, the dispersion liquid of lipid particles retaining mRNA was 10,000-fold diluted with the 1×TE buffer. 100 μL of the 10,000-fold diluted dispersion liquid of lipid particles was put into a 96-well plate, then 100 μL of a RiboGreen reagent (reagent included in the Quanti-iT Ribogreen RNA Assay Kit described above) 2,000-fold diluted with the 1×TE buffer was added to a sample, and fluorescence (excitation wavelength: 485 nm, fluorescence wavelength: 535 nm) was measured using a plate reader Infinite F200 (TECAN), thereby quantifying the mRNA concentration in the outer water phase.
By using the quantification results of the total mRNA concentration and the mRNA concentration in the outer water phase that were obtained through the above steps, the mRNA encapsulation rate of the mRNA lipid particles was calculated according to the following Equation.
mRNA encapsulation rate (%)=(total mRNA concentration-mRNA concentration in outer water phase)/total mRNA concentration×100

[2] = aminolipid 50 / DOPE 10 / cholesterol 38.5 / DMG-PEG2000 1.5 mol %
[3] = aminolipid 45 / DOPE 10 / cholesterol 43.5 / DMG-PEG2000 1.5 mol %

Compound | Particle size [1, 2] [nm] | Nucleic acid encapsulation rate (EPO mRNA; [2]) [%] | Particle size [1, 3] [nm] | Nucleic acid encapsulation rate (EPO mRNA; [3]) [%] | Relative amount of EPO protein (with respect to Comparative Example 1) (human EPO; [2]) | Relative amount of EPO protein (with respect to Comparative Example 1) (human EPO; [3])
CCCCCCC(CCCC(=O)OCC(CCCCC)CCCCC)OC(=O)OCCN(CCCCN(CC)CC)CCOC(=O)OC(CCCCCC)CCCC(=O)OCC(CCCCC)CCCCC (stereo not drawn) [Example 14, Bis(2-pentylheptyl) 11-(4-(diethylamino)butyl)-5,17-dihexyl-7,15-dioxo-6,8,14,16-tetraoxa-11-azahenicosanedioate] | 75.9 | 98.8 |  |  | 3.85 | 
CCCCCCC(CCCC)COC(=O)CCCCCCCCC(CCCCCC)OC(=O)OCCN(CCCN(CC)CC)CCOC(=O)OC(CCCCCC)CCCCCCCCC(=O)OCC(CCCC)CCCCCC (stereo not drawn) [Example 3, Bis(2-butyloctyl) 16-(3-(diethylamino)propyl)-10,22-dihexyl-12,20-dioxo-11,13,19,21-tetraoxa-16-azahentriaco ntanedioate] | 81.2 | 97.8 |  |  | 1.92 | 
CCCCCCC(CCCC(=O)OCCC12CC3CC(CC(C3)C1)C2)OC(=O)OCCN(CCOC(=O)OC(CCCCCC)CCCC(=O)OCCC12CC3CC(CC(C3)C1)C2)CCN(CC)CC (stereo not drawn) [Example 27, Bis (2-(((3r,5r,7r)-adamantan-1-yl)ethyl)11-(2-(diethylamino)ethyl)-5,17-dihexyl-7,15-dioxo-6,8,1 4,16-tetraoxa-11-azahenicosanedioate] | 101.5 | 99.8 |  |  | 3.60 | 
CCCCCCC(CCCC(=O)OCC(CCCCC)CCCCC)OC(=O)OCCN(CCOC(=O)OC(CCCCCC)CCCC(=O)OCC(CCCCC)CCCCC)CCN(CC)CC (stereo not drawn) [Example 10, bis(2-pentylheptyl) 11-(2-(diethylamino)ethyl)-5,17-dihexyl-7,15-dioxo-6,8,14,16-tetraoxa-11-azahenicosanedioate] | 88.0 | 100.0 |  |  | 2.39 | 
CCCCCCC(CCCC(=O)OCC(CCCCC)CCCCC)OC(=O)OCCCN(CCCOC(=O)OC(CCCCCC)CCCC(=O)OCC(CCCCC)CCCCC)CCN(CC)CC (stereo not drawn) [Example 15, Bis(2-pentylheptyl) 12-(2-(diethylamino)ethyl)-5,19-dihexyl-7,17-dioxo-6,8,16,18-tetraoxa-12-azatricosanedioate] | 76.8 | 97.5 |  |  | 1.92 | 

The next lines start with results.

Particle size [1, 2] [nm] | Nucleic acid encapsulation rate (EPO mRNA; [2]) [%] | Particle size [1, 3] [nm] | Nucleic acid encapsulation rate (EPO mRNA; [3]) [%] | Compound | Relative amount of EPO protein (with respect to Comparative Example 1) (human EPO; [2]) | Relative amount of EPO protein (with respect to Comparative Example 1) (human EPO; [3])
69.4 | 97.3 |  |  | CCCCCCC(CCCC(=O)OCC(CCCCC)CCCCC)OC(=O)OCCCCN(CCCCOC(=O)OC(CCCCCC)CCCC(=O)OCC(CCCCC)CCCCC)CCN(CC)CC (stereo not drawn) [Example 16, Bis(2-pentylheptyl) 13-(2-(diethylamino)ethyl)-5,21-dihexyl-7,19-dioxo-6,8,18,20-tetraoxa-13-azapentacosanedio ate] | 2.53 | 
 |  | 128.2 | 98.9 | CCCCCCCCOC(=O)CCCC(CCCC(=O)OCCCCCCCC)OC(=O)OCCN(CCOC(=O)OC(CCCC(=O)OCCCCCC)CCCC(=O)OCCCCCC)CCN(CC)CC [Example 42] |  | 4.28
99.2 | 100.0 |  |  | CCCCCCCCCOC(=O)CCCC(CCCC(=O)OCCCCCCCCC)OC(=O)OCCN(CCOC(=O)OC(CCCC(=O)OCCCCCCCCC)CCCC(=O)OCCCCCCCCC)CCN(CC)CC [Example 34, Dinonyl 11-(2-(diethylamino)ethyl)-5,17-bis(4-(nonyloxy)-4-oxobutyl)-7,15-dioxo-6,8,14,16-tetraoxa-11-azahenicosanedioate] | 1.20 | 
